Results on 9 molecules are retold here after US11434490B2, “Fluorogen-binding RNA aptamers” (CENTRE NATIONAL DE LA RECHERCHE SCIENTIFIQUE, priority 2017, dated 2022).

As a reminder, the Kd is a measure of binding affinity in units of concentration.

The subject of one series is HEK293T cells. The experiment in a line: Cellular imaging of transfected Mango tagged RNAs. Type of series: cell-based. The following applies: fixed cells. The protocol:
HEK293T cells were grown in Dulbecco Modified Eagle's Medium containing 10% Fetal Bovine Serum, 2 mM D-Glucose, 2 mM L-Glutamine, 1 mM Sodium Pyruvate and 100 U/ml Penicillin/Streptomycin (Thermo Fisher) and maintained at 37° C. with 5% CO2 in a humidified incubator. Cells used for imaging were cultured in Ibidi glass bottomed 8-well chamber slides (Ibidi GmbH).
RNA was transfected directly into 8-well chamber slides using the Lipofectamine-based CRISPRMAX reagent following the manufacturers guidelines (Invitrogen). Initially 125 nM RNA containing 10 mM Sodium Phosphate buffer (pH 7.2), 100 mM KCl and 1 mM MgCl2 was incubated at room temperature followed by a 1:1 dilution in OptiMEM prior to transfection. The RNA transfected was incubated at 37° C. for 1 hour in complete growth medium.
Cells were fixed in PBS containing 4% paraformaldehyde for 10 min on ice (Thermo Fisher) followed by permeabilization in 0.2% Triton X-100 for 10 min at room temperature. Cells were first blocked (2% BSA in PBS) for 30 min followed by primary antibody (1:50-1:500 dilutions) incubation for 120 min in blocking solution.
Primary antibodies used here were: Anti-Ribosomal Protein S6 (MAB5436, R&D Systems), Anti-ATP5B (ab14730, Abcam), Anti-GW182 (ab7052, Abcam), Anti-EEA-1 (ab70521, Abcam), Anti-LSm3 (NBP2-14206, Novus Biologicals), Anti-TIAR (sc-398372, Santa Cruz). Secondary antibodies used were Donkey Anti-mouse and Donkey Anti-Rabbit Alexa Fluor 680 (Molecular Probes). Primary antibodies were washed three times for 20 min each in blocking solution followed by incubation with secondary antibody at 1:500 dilution for 60 min, which was subsequently washed as above.
To visualize the nuclear boundary in live cells, a plasmid expressing a fluorescently tagged histone protein (EBFP2-H2B-6, Addgene plasmid 55243) was transfected using FuGene 6 (Promega) 24 h prior to RNA transfection. […] Following incubation of the RNA transfection, the cells were washed once with PBS and replaced with live-cell imaging media (Fluorobrite DMEM supplemented with 20 mM HEPES, Invitrogen). Live and fixed cell images were taken using a Zeiss Elyra wide-field microscope by exciting at 405 nm (Blue), 488 nm (Green) and 642 nm (Far-Red) and detecting at 420-480 nm, 495-550 nm and >650 nm, respectively. Live cells were maintained at 37° C. with 5% CO2 in a stage top incubator (Tokai Hit). Images were processed using FIJI and spot detection analysis was performed on each maximum projection by the spot detector plugin in the ICY image analysis software, which detects significant foci with a pixel area 3×3 pixels.

The conditions of series [1]: cited from earlier work.
Series [2] in a line: Fluorescence titration, binding affinity for TO1-Biotin. The following applies: for Kd: ligand TO1-B (TO1-Biotin). The source says:
(§1) FIG. 2|RNA Mango I, II, III and IV core sequences and their properties. (a) Color coded alignment of RNA Mango I, II, III and IV. G residues in yellow are protected from DMS cleavage (data from panel d) when folded in the presence of fluorophore. Quadruplex stacks and their associated propeller sequences are numbered 1 through 4. The GAAA isolation motif of Mango I, together with two adenines essential for binding, are shown in green and red respectively. Purple shading represents a flanking stem region common for all four Mango aptamers. Schematic: A tertiary structure schematic of Mango I, showing tier 1, 2 and 3 of its quadruplex structure (T1, T2 and T3) and color-coded as in (a). […] Bottom: Top view of the Mango I core (PBD ID: 5V3F), showing the T3 tier of the quadruplex and relevant propeller residues, color coding matches the schematic and panel a. […] KD values are shown next to each titration. (c) Same as for panel b but using 20 nM TO3-Biotin. Data for panels b and c have been normalized such that Mango I has a maximum fluorescence of 1. Error bars are standard deviation of three replicates. (d) DMS chemical protection patterns for the four Mango aptamers. 3′ end-labelled RNA (terminal ^32pCp shown as a black asterisk) was subjected to DMS chemical modification followed by reduction by NaBH4 and aniline cleavage as described in the methods. […] Legend: T1—denatured T1 ladder; OH—partial alkaline hydrolysis ladder; (−) DMS—denatured reaction with ddH2O added in place of DMS; 80° C.
(§2) Fluorescence data was gathered using a Varian Cary Eclipse Spectrophotometer unless otherwise stated. […] Fluorescence was measured at the maximum excitation and emission wavelengths of each complex (FIG. 13).
Where F([RNA]) is the fluorescence as a function of RNA concentration [RNA], Fmax is the maximal fluorescence of the bound complex and Funbound the fluorescence of the unbound fluorophore. When the fluorescence of Funbound was undetectable, it was set to zero.
(§3) Fluorescence readings were recorded using a Varian Cary Eclipse Spectrophotometer set to measure at the maximum excitation and emission wavelengths of the Mango II aptamer dye complex. Fluorescence titrations were performed in Mango selection buffer (WB: 140 mM KCl, 1 mM MgCl2, 10 mM NaH2PO4 pH 7.2, 0.05% Tween-20).

Series [3] can be described thus: Fluorescence enhancement of TO1-Biotin. The following applies: ligand TO1-B; calculated relative to wt from the binding titration. It counts as biochemical. The protocol: (§4) The bandwidth for all measurements was 1.5 nm for all experiments. Measurements were performed in a 0.2 cm path length cuvette in a background of 20 mM MOPS pH 7.0, 150 mM KCl, 10 μM EDTA. Fluorescence readings were taken in the absence of RNA at a ligand concentration of 0.82 μM. A concentrated, annealed stock of RNA was then added to the cuvette resulting in a final concentration of 2 μM RNA and allowed to equilibrate for 1 minute prior to taking an emission reading. Fluorescence enhancement was determined by dividing the fluorescence signal of ligand in the presence of RNA by the fluorescence signal in the absence of RNA corrected for the background of the instrument.

Series [4] can be described thus: Fluorescence titration, binding affinity for TO3-Biotin. The following applies: ligand TO3-B (TO3-Biotin).
Excerpt: as §1, §2
Or to the following equation for TO3-Biotin and NMM experiments: F([RNA])=Fmax[RNA]/(KD+[RNA])+Funbound (Eq. 2) Fmax was determined using Eq. 1 or Eq. 2 as appropriate. Temperature Dependent Fluorescence and UV Melting Curves
as §3

Series [5] in a line: Fluorescence enhancement of TO3-Biotin. It counts as biochemical. Particulars: ligand TO3-B; calculated relative to wt from the binding titration. The protocol:
as §4

Series [6] in a line: Salt dependence of Mango/TO1-Biotin fluorescence: Na+ in place of K+. It counts as binding. The protocol:
(§5) FIG. 10|Salt dependence of new Mango variants. Dependence of fluorescence of each Mango for (a) K^+, (b) Na^+ in place of K^+, and (c) Mg^2+ ions in a buffer containing 140 mM K^+. […] 10 mM Tris buffer (pH 7.2) was used in place of phosphate of the WB buffer to avoid monovalent counter ions. Color-coding is as follows: Black—Mango I, Blue—Mango II, Green—Mango III, Orange—Mango IV. Hill coefficients are fitted to dark points. Points in lighter shade have been excluded from the fit. Error bars are standard deviations of three replicates.

Series [7] is described as follows: Salt dependence of Mango/TO1-Biotin fluorescence: Mg2+ titration. Particulars: in the presence of potassium; Mg2+ 256 mM. The protocol:
as §5

Series [8] can be described thus: Formaldehyde resistance assay. It counts as physicochemical. Particulars: in vitro, TO1-Biotin. The protocol: FIG. 15|Effect of formaldehyde on Mango fluorescence. […] In (b) RNA is incubated with the corresponding amounts of formaldehyde first for one hour, then TO1-Biotin is added. Data for each panel is normalized to RFU at the 0% formaldehyde, 0 min point.
RNA Mango aptamers were incubated with TO1-Biotin in WB buffer for at least one hour until equilibrium fluorescence was reached. […] Fluorescence was measured as a kinetic run at a rate of 2 readings per minute using a Varian Cary Eclipse Fluorescence Spectrophotometer, ex/em=510±2.5/535±5 nm.

Series [9] can be described thus: Salt dependence of Mango/TO1-Biotin fluorescence: K+ titration. Type of series: binding. Particulars: 25 nM RNA, 50 nM TO1-Biotin, 10 mM Tris pH 7.2. The protocol: as §5
A short description of series [10]: Photobleaching under constant illumination. Particulars: identical illumination conditions, on average. The protocol:
FIG. 16|Formation of 5S-Mango foci and their dynamics in live cells. (a) 5S-Mango IV imaged post cell fixation at 5, 15, 30 and 60 mins after transfection using Lipofectamine based CRISPRMAX transfection reagent. […] (c) Root mean-squared displacement (RMSD) of three observed foci with different diffusive behaviors, fast (Green), slow (Blue) and static (Red) shown in Video 3. Scale bars are 10 μm and arrows indicate foci of interest. (d) Normalized photobleaching traces of 5S-F30-Mango I and IV compared to 5S-F30-dBroccoli under constant illumination with an exposure time of 200 ms. Photobleaching half-lives are stated in the table adjacent and were calculated from an exponential fit of each curve.

Series [11] in a line: Brightness and photophysics of Mango fluorophore complexes. Type of series: physicochemical.
Excerpt: as §1
FIG. 13|Photophysics: excitation/emission. (a) Excitation (dark curve) and emission (light curve) spectra of each Mango. All Mangos have Δex max=510 nm and Δem max=535 nm. Color-coding is as follows: Black—Mango I, Blue—Mango II, Green—Mango III, Red—Mango IV.
as §2

Take “5S-F30-Mango IV: 5S rRNA tagged with Mango IV in F30 scaffold; SEQ ID NO: 6894”: in the series on HEK293T cells, the “foci formation after transfection” value was “consistently exhibit visible foci”, the “fraction of foci that are clearly nuclear” value is reported as about 5% and the “fraction of foci that are cytoplasmic” value was about 85%. Moreover, the “mean intensity of foci against 5S-F30-Control background” value with HEK293T cells (200 nM TO1-Biotin) is recorded as “two to three-fold higher”.

Take `CN1C(=Cc2cc[n+](C)c3ccccc23)Sc2ccccc21` [TO1, Thiazole Orange]: in series [1] (aqueous solution), the “fluorescence quantum yield ϕ” value is listed as 2×10^−4. In addition, in [1], the intracellular half-life result is given as “short intracellular half-life”; the membrane permeability result is “plasma and nuclear membrane permeability”. Further, the fluorescence quantum yield in series [1] (inserted into double-stranded helical nucleic acids) is reported as 0.11.

In turn, “Mango II - A12U: Mango-II point mutant; SEQ ID NO: 6908 (GGCACGUACGAAGGUGAGGAGAGGAAGAGGAGAGUACGUGC; chemistry not given here)” returned a Kd in series [2] of 0.0004 ± 7e-05 µM. The “FIE (fluorescence enhancement) †” value in [3] was 1342 †.

Regarding “Mango II - A15U A20U A25U A26U A31U: Mango-II five-fold mutant; SEQ ID NO: 6910 (GGCACGUACGAAGGUGAGGUGAGGUUGAGGUGAGUACGUGC; chemistry not given here)”, the Kd in [2] amounted to 0.00192 ± 0.00039 µM. Further, the “FIE (fluorescence enhancement) †” value in [3] is recorded as 1133 †.

For “Mango II - A15U A20U A25U: Mango-II triple mutant; SEQ ID NO: 6911 (GGCACGUACGAAGGUGAGGUGAGGUAGAGGAGAGUACGUGC; chemistry not given here)”, the affinity in [2], expressed as Kd, was 0.00076 ± 0.00024 µM. Moreover, in series [3], the “FIE (fluorescence enhancement) †” value is reported as 1329 †.

“Mango II - A17U: Mango-II point mutant; SEQ ID NO: 6909 (GGCACGUACGAAGGAGAGGUGAGGAAGAGGAGAGUACGUGC; chemistry not given here)” gave a Kd in series [2] of 0.001 ± 0.00016 µM. Also, the “FIE (fluorescence enhancement) †” value in series [3] is on record as 1237 †.

In the case of “Mango II - A22C: Mango-II point mutant; SEQ ID NO: 6906 (GGCACGUACGAAGGAGAGGAGAGGCAGAGGAGAGUACGUGC; chemistry not given here)”, the equilibrium dissociation constant (Kd) in series [2] turned out to be 0.0009 ± 0.0002 µM; in series [4] it was 0.0051 ± 0.0014 µM. The figures for the “FIE (fluorescence enhancement) †” value in series [3] and in [5] were 1407 † and 37 †, respectively.

On to “Mango II - A22G: Mango-II point mutant; SEQ ID NO: 6907 (GGCACGUACGAAGGAGAGGAGAGGGAGAGGAGAGUACGUGC; chemistry not given here)”, for which the results for the dissociation constant (Kd) in series [2] and in series [4] were 0.0064 ± 0.0015 µM and 0.0076 ± 0.0037 µM, respectively. In addition, the “FIE (fluorescence enhancement) †” value was 1224 † in series [3] and 52 † in series [5].

Consider “Mango-IV: minimal construct engineered from isolate R5-NMM-5”, for which the “fluorescence in the presence of sodium ions” value in series [6] is recorded as “limited fluorescence response”. In addition, the “effect of high levels of Mg^2+ on fluorescence” value in series [7] was “significantly resistant”. Further, the resistance to formaldehyde result in [8] is “substantially resistant to formaldehyde”. The “TO1-Biotin binding affinity (in words)” value in series [2] was “slightly weaker affinities than Mango-I”. Also, the “decrease in binding affinity on replacing CGA with GAA” value in series [2] (Mango-IV sequence variant against Mango-IV) is recorded as “four-fold”. Further, the Kd in series [9] turned out to be 64 ± 24 mM. Also, the “Hill Coefficients K^+” value in series [9] (* estimated from initial rise of fluorescence) is listed as 1.5 ± 0.2*. The “bleaching half-lives longer than RNA Spinach” value in series [10] stood at 10 times. Further, in series [11] (TO1-Biotin complex), the “brightness of the TO1-Biotin bound complex” value was 32,000 M^−1cm^−1. Moreover, the “brighter than Mango-I” value in series [11] (TO1-Biotin, FIG. 2b) amounted to 3 fold.
